Test results reported in patent US12378208B2, “N-substituted oseltamivir derivatives with antimicrobial activity” (THE HONG KONG POLYTECHNIC UNIVERSITY, priority 2019, dated 2025).

Legend:
NA from A/H3N2 = NA from A/H3N2 (Influenza A virus, UniProt O91745); test: biochemical; format: biochemical, seasonal A/H3N2
[1] = tested on: influenza A virus A/OK/447/08 (H1N1); test: Plaque assay in MDCK cells; format: cell-based; details: for plaque count: two concentrations; for plaque size compared with 0.2 nM oseltamivir: both compounds at both concentrations vs 0.2 nM oseltamivir
[2] = tested on: influenza B virus (IBV) 12v28393; test: Plaque assay in MDCK cells; format: cell-based; details: for plaque size: MDCK, day 3, vs DMSO vehicle, both concentrations
IBV 12v33261 = test: Plaque assay in MDCK cells; format: cell-based, influenza B virus; details: for plaque size: MDCK, day 3, vs DMSO vehicle, both concentrations
IBV 12v33280 = test: Plaque assay in MDCK cells; format: cell-based, influenza B virus; details: for plaque size: MDCK, day 3, vs DMSO vehicle, both concentrations
neuraminidase = neuraminidase (Influenza A virus, UniProt O91745); details: previous studies (Ye et al., 2019); read-out: half maximal inhibitory concentration (IC50); cited from earlier work
neuraminidase, sequence (O91745 whole entry): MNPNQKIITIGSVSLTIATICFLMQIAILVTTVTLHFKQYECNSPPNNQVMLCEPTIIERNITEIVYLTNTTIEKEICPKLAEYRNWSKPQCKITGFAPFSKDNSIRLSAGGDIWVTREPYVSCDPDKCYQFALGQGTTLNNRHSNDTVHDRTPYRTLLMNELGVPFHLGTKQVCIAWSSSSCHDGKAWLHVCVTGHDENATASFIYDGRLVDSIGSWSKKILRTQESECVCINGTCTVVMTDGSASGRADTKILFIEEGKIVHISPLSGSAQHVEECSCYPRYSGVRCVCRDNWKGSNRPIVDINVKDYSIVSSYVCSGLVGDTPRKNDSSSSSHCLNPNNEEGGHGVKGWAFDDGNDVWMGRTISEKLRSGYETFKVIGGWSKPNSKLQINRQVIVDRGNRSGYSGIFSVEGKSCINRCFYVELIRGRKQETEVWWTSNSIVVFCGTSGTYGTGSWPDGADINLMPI

[3] = 3.2 nM S22 vs 0.2 nM oseltamivir (p<0.01)

NA from A/H3N2, sequence (O91745 whole entry, looked up): as the sequence (O91745 whole entry) above

Structure (SMILES)	Inhibition rate, 1 μM (NA from A/H3N2) [%]	Inhibition rate, 10 μM (NA from A/H3N2) [%]	further results
CCC(CC)O[C@@H]1C=C(C(=O)O)C[C@H](NCc2noc(-c3ccco3)n2)[C@H]1NC(C)=O [Compound S7, (3R,4R,5S)-4-acetamido-5-(((5-(furan-2-yl)-1,2,4-oxadiazol-3-yl)methyl)amino)-3-(pentan-3-yloxy)cyclohex-1-ene-1-carboxylic acid]	–	–	% Inhibition (1 nM) (NA from A/H3N2): 28.1 ± 1.7%; IC50 (NA from A/H3N2; Table 2, Example 32): 1.92 ± 0.24 nM; plaque count ([1]; […]): not plaque count; plaque size compared with 0.2 nM oseltamivir [1]: equally well; inhibition compared with 3.2 nM S22 ([2]; 3.8 nM S7 vs 3.2 nM S22 (p<0.05)): extra benefit; plaque size [2]: significantly reduce the plaque size; plaque size (IBV 12v33261): significantly reduce the plaque size; plaque size (IBV 12v33280): significantly reduce the plaque size; IC50 (neuraminidase): 1.9 nM
CCC(CC)O[C@@H]1C=C(C(=O)O)C[C@H](NCc2ccc(-c3c(C)noc3C)o2)[C@H]1NC(C)=O [Compound S22, (3R,4R,5S)-4-acetamido-5-(((5-(3,5-dimethylisoxazol-4-yl)furan-2-yl)methyl)amino)-3-(pentan-3-yloxy)cyclohex-1-ene-1-carboxylic acid]	–	–	% Inhibition (1 nM) (NA from A/H3N2): 30.2 ± 1.5%; IC50 (NA from A/H3N2; Table 2, Example 32): 1.63 ± 0.16 nM; plaque count ([1]; […]): not plaque count; plaque size compared with 0.2 nM oseltamivir [1]: equally well; plaque size compared with 0.2 nM oseltamivir [2, 3]: better inhibition effect; plaque size [2]: significantly reduce the plaque size; plaque size compared with 0.2 nM oseltamivir (IBV 12v33261; 3.2 nM S22 vs 0.2 nM oseltamivir (p<0.05)): better inhibition effect; plaque size (IBV 12v33261): significantly reduce the plaque size; plaque size compared with 0.2 nM oseltamivir (IBV 12v33280; 1.6 nM S22 vs 0.2 nM oseltamivir (p<0.05)): extra benefit; inhibition compared with 1.9 nM S7 (IBV 12v33280; 1.6 nM S22 vs 1.9 nM S7 (p<0.05)): better; plaque size compared with 0.2 nM oseltamivir (IBV 12v33280; [3]): better inhibition effect; inhibition compared with 1.9 nM S7 (IBV 12v33280; 3.2 nM S22 vs 1.9 nM S7 (p<0.01)): better; plaque size (IBV 12v33280): significantly reduce the plaque size; IC50 (neuraminidase): 1.6 nM
CCC(CC)O[C@@H]1C=C(C(=O)O)C[C@H](NCc2cc(-c3ccccc3)on2)[C@H]1NC(C)=O [Compound S24]	–	–	% Inhibition (1 nM) (NA from A/H3N2): 1.6 ± 0.4%
CCC(CC)O[C@@H]1C=C(C(=O)O)C[C@H](NC(=O)c2cnn(Cc3ccccc3)c2)[C@H]1NC(C)=O [OC-001]	7.71	32.02	–
CCC(CC)O[C@@H]1C=C(C(=O)O)C[C@H](NC(=O)c2cnn(Cc3cccc(OC)c3)c2)[C@H]1NC(C)=O [OC-002]	6.12	23.37	–
CCC(CC)O[C@@H]1C=C(C(=O)O)C[C@H](NC(=O)c2cnn(Cc3cccc(Cl)c3)c2)[C@H]1NC(C)=O [OC-003]	5.74	23.88	–
CCC(CC)O[C@@H]1C=C(C(=O)O)C[C@H](NC(=O)c2cnn(Cc3ccc(OC)cc3)c2)[C@H]1NC(C)=O [OC-004]	−0.21	26.79	–
CCC(CC)O[C@@H]1C=C(C(=O)O)C[C@H](NC(=O)c2cnn(Cc3ccccc3Cl)c2)[C@H]1NC(C)=O [OC-005]	−1.46	18.88	–
CCC(CC)O[C@@H]1C=C(C(=O)O)C[C@H](NC(=O)c2cnn(Cc3ccc(C(F)(F)F)cc3)c2)[C@H]1NC(C)=O [OC-006]	−2.25	21.72	–
CCC(CC)O[C@@H]1C=C(C(=O)O)C[C@H](NC(=O)c2cnn(Cc3cccc([N+](=O)[O-])c3)c2)[C@H]1NC(C)=O [OC-007]	−5.33	12.26	–
CCC(CC)O[C@@H]1C=C(C(=O)O)C[C@H](NC(=O)c2cc(-c3ccccc3)n[nH]2)[C@H]1NC(C)=O [OC-008]	5.84	42.81	–
CCC(CC)O[C@@H]1C=C(C(=O)O)C[C@H](NC(=O)c2cc(-c3ccc(C(F)(F)F)cc3)n[nH]2)[C@H]1NC(C)=O [OC-009]	3.44	46.76	–
CCC(CC)O[C@@H]1C=C(C(=O)O)C[C@H](NC(=O)c2cnn(-c3ccc(C)cc3)c2)[C@H]1NC(C)=O [OC-010]	8.96	52.31	IC50 (NA from A/H3N2; Table 4, Example 34): 43900 nM
CCC(CC)O[C@@H]1C=C(C(=O)O)C[C@H](NC(=O)c2cc(-c3ccc(Cl)cc3)n[nH]2)[C@H]1NC(C)=O [OC-011]	14.65	50.43	–
CCC(CC)O[C@@H]1C=C(C(=O)O)C[C@H](NC(=O)c2cc(-c3ccc(F)cc3)n[nH]2)[C@H]1NC(C)=O [OC-012]	33.62	56.45	IC50 (NA from A/H3N2; Table 4, Example 34): 11600 nM
CCC(CC)O[C@@H]1C=C(C(=O)O)C[C@H](NC(=O)c2cc(C3CC3)nn2-c2ccccc2)[C@H]1NC(C)=O [OC-013]	19.92	30.41	–
CCC(CC)O[C@@H]1C=C(C(=O)O)C[C@H](NC(=O)c2cc(-c3cccs3)n[nH]2)[C@H]1NC(C)=O [OC-014]	21.57	40.02	–

Structure (SMILES)	Inhibition rate, 1 μM (NA from A/H3N2) [%]	Inhibition rate, 10 μM (NA from A/H3N2) [%]	further results
CCC(CC)O[C@@H]1C=C(C(=O)O)C[C@H](NC(=O)c2cc(-c3ccc(Cl)cc3)nn2CC2CC2)[C@H]1NC(C)=O [OC-015]	16.52	31.50	–
CCC(CC)O[C@@H]1C=C(C(=O)O)C[C@H](NC(=O)c2cnn(-c3ccccc3C)c2)[C@H]1NC(C)=O [OC-016]	12.74	38.37	–
CCC(CC)O[C@@H]1C=C(C(=O)O)C[C@H](NC(=O)c2cc(-c3ccc(OC)cc3)n[nH]2)[C@H]1NC(C)=O [OC-017]	14.83	42.02	–
CCC(CC)O[C@@H]1C=C(C(=O)O)C[C@H](NC(=O)c2cc(-c3ccc(Cl)cc3)nn2CC2CCC2)[C@H]1NC(C)=O [OC-018]	11.12	39.81	–
CCC(CC)O[C@@H]1C=C(C(=O)O)C[C@H](NC(=O)c2cc(-c3ccc(Cl)cc3)nn2CC2CCCCC2)[C@H]1NC(C)=O [OC-019]	11.62	48.50	–
CCC(CC)O[C@@H]1C=C(C(=O)O)C[C@H](NC(=O)c2cc(C3CC3)n(-c3ccc(C(F)(F)F)cc3)n2)[C@H]1NC(C)=O [OC-020]	8.26	44.47	–
CCC(CC)O[C@@H]1C=C(C(=O)O)C[C@H](NC(=O)c2cc(C3CC3)n(-c3ccccc3)n2)[C@H]1NC(C)=O [OC-021]	7.13	30.57	–
CCC(CC)O[C@@H]1C=C(C(=O)O)C[C@H](NC(=O)c2cnn(-c3ccc(OC)cc3)c2)[C@H]1NC(C)=O [OC-022]	6.31	34.15	–
CCC(CC)O[C@@H]1C=C(C(=O)O)C[C@H](NC(=O)c2cc(C3CC3)n(-c3cccc(C)c3)n2)[C@H]1NC(C)=O [OC-023]	6.24	34.75	–
CCC(CC)O[C@@H]1C=C(C(=O)O)C[C@H](NC(=O)c2cc(C3CC3)n(-c3ccc(Br)cc3)n2)[C@H]1NC(C)=O [OC-024]	5.84	42.68	–
CCC(CC)O[C@@H]1C=C(C(=O)O)C[C@H](NC(=O)c2cc(C3CC3)nn2-c2ccc(Br)cc2)[C@H]1NC(C)=O [OC-025]	2.19	37.17	–
CCC(CC)O[C@@H]1C=C(C(=O)O)C[C@H](NC(=O)c2cnn(-c3ccc(Cl)cc3)c2)[C@H]1NC(C)=O [OC-026]	−0.26	25.67	–
CCC(CC)O[C@@H]1C=C(C(=O)O)C[C@H](NC(=O)c2cc(C3CC3)nn2-c2cccc(C)c2)[C@H]1NC(C)=O [OC-027]	0.70	31.53	–
CCC(CC)O[C@@H]1C=C(C(=O)O)C[C@H](NC(=O)c2cc(C3CC3)n(-c3ccccc3C)n2)[C@H]1NC(C)=O [OC-028]	8.06	60.91	IC50 (NA from A/H3N2; Table 4, Example 34): 22700 nM
CCC(CC)O[C@@H]1C=C(C(=O)O)C[C@H](NC(=O)c2cc(C3CC3)nn2-c2ccccc2C)[C@H]1NC(C)=O [OC-029]	23.28	72.80	IC50 (NA from A/H3N2; Table 4, Example 34): 16900 nM
CCOC(=O)C1=C[C@@H](OC(CC)CC)[C@H](NC(C)=O)[C@@H](N)C1 [oseltamivir]	–	–	plaque count ([1]; […]): not plaque count; plaque size ([1]; […], two concentrations (oseltamivir 0.1/0.2 nM, S7 1.9/3.8 nM, S22 1.6/3.2 nM)): reduction in plaque size; IC50 (neuraminidase): 0.1 nM
